Measured values from patent US9056081B2, “Compositions for treating pseudomonas infection” (Universitätsklinikum Hamburg-Eppendorf, priority 2009, dated 2015).
pIC50: −log10 of the molar value. “Also recorded” adds a separate entry of the source. Like-named read-outs stand apart in the source and are kept apart here. Ends that are not written are not given here.

Key:
PA-IIL [1] = target: T1, PA-IIL (Pseudomonas aeruginosa, UniProt Q9HYN5); assay: cell-based; format: cell-based
Protocol: (§1) Experiments were carried out on human nasal conchae, obtained during routine surgery from the ENT Hospital of the University Medical Center Hamburg-Eppendorf, Hamburg, Germany. For the measurement of CBF, small pieces of nasal mucosa were punched out of the nasal conchae by a special biopsy punch (Stiefel Laboratorium GmbH, Offenbach, Germany) (4-6 pieces per nasal conchae) and transferred to Petri dishes (Greiner Bio-One, Kremsmünster, Austria) containing RPMI-1640 and L-Glutamine medium (Gibco, Karlsruhe, Germany) supplemented with 10% fetal calf serum (Gibco, Karlsruhe, Germany), 1% Penicillin-Streptomycin (10 000 U/ml, Gibco, Karlsruhe, Germany) and 0.9% Amphotericin B (250 UG/ml, Gibco, Karlsruhe, Germany) as a fungicide. The specimens were maintained under standard cell culture conditions at 37° C. in 5% CO2 for up to two weeks.
(§2) The aim of this experiment was to compare the efficiency of different sugar solutions and peptides to block PA-IL and PA-IIL binding to cilia in tissue sections and in vitro airway cultures by measuring their ciliary beat frequency (CBF). Actively beating ciliated cells were viewed trough phase-contrast optics of a Leica DM IRB HC inverted microscope (Leica, Bensheim, Germany) placed on a Micro-g vibration isolation table (TMC, Peabody, Mass.). During the experiments, the cultured tissue samples were maintained at a constant temperature (35±0.5° C.) by a thermostatically controlled heated stage. The signals were measured and analysed by a computer system incorporating a special purpose MPV-CBF software (Software-Entwicklung Radmann, Solms, Germany). The CBF was calculated by collecting data from 512 readings (10 s) and by performing Fourier analysis (Mewe et al. 2005). Five of these Fourier transforms taken per nasal conchae piece were measured.
(§3) The influence of monosaccharides and several peptides (obtained from Centre for Molecular Neurobiology, Hamburg, Germany) alone and in combination with PA-IL or PA-IIL on CBF was also investigated. The monosaccharides (0.2 M) and peptides (0.968 mM) were pre-incubated with 10 μg/ml PA-IL and 10 μg/ml PA-IIL, respectively, for 30 min at room temperature, at which they were agitated the for whole time and then added to the medium and the CBF was monitored over a 24 h period. Measurement was carried out after 0, 1, 2, 3, 5, 8, 24 h incubation. Negative controls were maintained in medium with no additions made. Positive controls were maintained in medium with PA-IL or PA-IIL, respectively.
For CBF analysis monosaccharides (D-galactose and L(−)-fucose) and peptides were pre-incubated with PA-IIL and the CBF was determined.

PA-IL = PA-IL (Pseudomonas aeruginosa, UniProt Q05097); assay: cell-based; format: cell-based
Protocol: as §1, §2
as §3, with “([…])” for “(0.2 M) and peptides (0.968 mM)”
In CBF analysis, the influence of monosaccharides (D-galactose and L(−)-fucose) and the HNK-1 mimetic peptide pHNK-1 alone and in combination with PA-IL on CBF was investigated.

[2] = Storage stability of monosaccharide solutions (data not shown); format: physicochemical; details: stored at room temperature or at 4° C. dissolved in an aqueous solution
human airway cilia = assay: Ciliary beat frequency (CBF) of human nasal mucosa, substances alone without lectin; format: cell-based; details: no lectin, over 24 h; for effect on the ciliary beat frequency (CBF), monosaccharide alone: 0.2 M monosaccharide
PA-IIL [3] = target: T1, PA-IIL; format: cell-based; details: 0.121-0.484 mM peptide co-incubated with 10 μg/ml PA-IIL, 24 h
PA-IL and PA-IIL = assay: CBF assay: simultaneous application of PA-IL and PA-IIL; format: cell-based, Pseudomonas aeruginosa
Protocol: Experiments were carried out on human nasal conchae, obtained during routine surgery from the ENT Hospital of the University Medical Center Hamburg-Eppendorf, Hamburg, Germany. […]
The aim of this experiment was to compare the efficiency of different sugar solutions and peptides to block PA-IL and PA-IIL binding to cilia in tissue sections and in vitro airway cultures by measuring their ciliary beat frequency (CBF). […] The signals were measured and analysed by a computer system incorporating a special purpose MPV-CBF software (Software-Entwicklung Radmann, Solms, Germany). The CBF was calculated by collecting data from 512 readings (10 s) and by performing Fourier analysis (Mewe et al. 2005). Five of these Fourier transforms taken per nasal conchae piece were measured.
The influence of monosaccharides and several peptides (obtained from Centre for Molecular Neurobiology, Hamburg, Germany) alone and in combination with PA-IL or PA-IIL on CBF was also investigated. The monosaccharides (0.2 M) and peptides (0.968 mM) were pre-incubated with 10 μg/ml PA-IL and 10 μg/ml PA-IIL, respectively, for 30 min at room temperature, at which they were agitated the for whole time and then added to the medium and the CBF was monitored over a 24 h period. […]

[4] = 0.2 M monosaccharide co-incubated with 10 μg/ml PA-IIL, 24 h
[5] = 0.2 M monosaccharide co-incubated with 10 μg/ml PA-IL, 24 h
[6] = 0.121 mM peptide co-incubated with 10 μg/ml PA-IL, 24 h
[7] = 0.242 mM peptide co-incubated with 10 μg/ml PA-IL, 24 h

T1 sequence (Q9HYN5 entry or part of it): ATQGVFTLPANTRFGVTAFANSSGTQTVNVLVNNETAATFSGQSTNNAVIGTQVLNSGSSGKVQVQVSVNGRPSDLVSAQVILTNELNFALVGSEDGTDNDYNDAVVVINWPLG
Sequence of PA-IL (Q05097 whole entry): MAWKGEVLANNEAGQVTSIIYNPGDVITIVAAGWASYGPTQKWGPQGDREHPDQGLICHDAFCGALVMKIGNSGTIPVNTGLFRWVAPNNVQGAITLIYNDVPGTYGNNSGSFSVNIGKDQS

Compound | effect on the CBF-decreasing effect of PA-IIL (PA-IIL [1]; [4]) | effect on the CBF-decreasing effect of PA-IL (PA-IL; [5]) | stability and inhibitory potency of the solution on storage [2] | effect on the ciliary beat frequency (CBF), monosaccharide alone (human airway cilia) | pIC50 (PA-IIL [1]) | effect on the CBF-decreasing effect of PA-IIL (PA-IIL [1]) | effect on the CBF-decreasing effect of PA-IIL (PA-IIL [3]) | pIC50 (PA-IL) | effect on the CBF-decreasing effect of PA-IL (PA-IL) | effect on the CBF-decreasing effect of PA-IL (PA-IL; [6]) | effect on the CBF-decreasing effect of PA-IL (PA-IL; [7]) | effect on the ciliary beat frequency (CBF), peptide alone (human airway cilia; 0.968 mM peptide) | effect on the decrease of CBF after simultaneous application of PA-IL and PA-IIL (PA-IL and PA-IIL) | effect on the CBF-decreasing effect of PA-IL (PA-IL; listed as scrambled version of the peptide pHNK-1)
O=C[C@H](O)[C@@H](O)[C@@H](O)[C@H](O)CO [D-galactose, reference compound] | no inhibition could be achieved; also recorded: resulted in a decline of the CBF within 24 h; also recorded: did not inhibit | reduced the CBF-decreasing effect of the PA lectin; also recorded: could be effectively reduced | not stable and loose their inhibitory potency | had no effect on the CBF | – | – | – | – | – | – | – | – | – | –
C[C@H](O)[C@@H](O)[C@@H](O)[C@H](O)C=O [L(−)-fucose, reference compound] | could be reduced; also recorded: reduced the CBF-decreasing effect of the PA lectin | resulted in a continuous decrease of the CBF within 24 h; also recorded: did not inhibit | not stable and loose their inhibitory potency | had no effect on the CBF | – | – | – | – | – | – | – | – | – | –
FLHTRLFV [pHNK-1] | – | – | – | – | 3.01 | inhibited the CBF-decreasing effect of PA-IIL; also recorded: reduced the CBF-decreasing effect of the PA lectin; also recorded: blocked | resulted in a continuous decrease of the CBF within 24 h | 3.32 | blocked the CBF-decreasing effect of PA-IL; also recorded: reduced the CBF-decreasing effect of the PA lectin; also recorded: could be reduced | resulted in a continuous decrease of the CBF within 24 h | resulted in a continuous decrease of the CBF within 24 h | had no effect on the CBF | caused an inhibition of lectin induced suppression of CBF; also recorded: could be inhibited | –
TVFHFRLL [sHNK-1] | – | – | – | – | – | resulted in a continuous decrease of the CBF within 24 h; also recorded: none of the other tested peptides (sHNK-1, pLeX, sLeX) had any consequence; also recorded: had no effect | – | – | also reduced the CBF-decreasing effect of PA-IL; also recorded: reduced the CBF-decreasing effect of the PA lectin; also recorded: resulted in a continuous decrease of the CBF within 24 h | resulted in a continuous decrease of the CBF within 24 h | resulted in a continuous decrease of the CBF within 24 h | – | – | also reduced the CBF-decreasing effect of PA-IL
